# Measurements reported in US20210340629A1, “BIOMARKERS FOR CANCER THERAPY” (The Council of the Queensland Institute of Medical Research, priority 2018, published 2021).
# What was measured:
# [1] = system: MAP1LC3B; test: MAP1LC3B expression in excised D20 xenograft tumors (qRT-PCR, immunohistochemistry); format: in vivo, SCID mice; details: 5 mg/kg
# Experimental: (§1) Quantitative RT-PCR and ChIP assays were conducted as previously described (Lee et al. (2010) Mol Cell 39, 71-85). Briefly, total RNA was isolated from either the tumor cells or from xenografts using Trizol (Invitrogen) and reverse transcription was performed from 2 μg of total RNA using the Superscript III cDNA synthesis system (Invitrogen). The abundance of mRNA was detected by an ABI VIIA7 system with SYBR Green Master Mix (Life Technologies). Primer pairs were designed to amplify 90-150 bp mRNA specific fragments and were confirmed as unique products by melting curve analysis. The quantity of mRNA was calculated using the ΔΔCt method and normalized to HPRT. All reactions were performed in triplicates.
# Groups of 8 SCID mice per treatment group were used for xenograft studies to ensure adequate power to detect biological differences. All experiments were approved by the QIMR Berghofer Medical Research Institute Animal Ethics Committee. […] Tumor volumes (width2×length/2) were measured using a digital calliper, and presented as mean±SD. […]
# Tumor sections were fixed in 4% paraformaldehyde. […] Aperio ImageScope software was used for imaging and quantitation of 5 non-overlapping tumor regions and evaluating the number of positive pixels per unit area in each region. Empty areas were manually excluded from quantification.
# Quantitative RT-PCR was performed as described above.
# [2] = system: LC3B II; test: Immunoblotting analysis of LC3B I/II; format: cell-based, human; details: D05 and C008 cell lines, 5 μM, 8 hours, FIG. 6
# Experimental: (§2) For immunoblotting, protein whole cell lysates were prepared using RIPA lysis buffer containing 20 mM Tris, pH 8.0, 150 mM NaCl, 10% glycerol, 1% Nonidet P-40 containing protease inhibitor cocktail (Roche). Nuclear extracts were obtained using a standard high salt extraction buffer (20 mM HEPES (pH 7.9), 0.32 M NaCl, 1 mM EDTA, and 1 mM EGTA) supplemented with 1mM DU and protease inhibitor cocktail. Protein assays were performed according to the Bradford method using a protein assay kit (BioRad). […] of denatured proteins were separated using 10% sodium dodecyl sulfate-polyacrylamide gel electrophoresis (SDS-PAGE) and transferred to Polyvinylidene difluoride (PVDF) membranes. The membranes were blocked for 1 hour in 5% skim milk in Tris-buffered saline with Tween 20 (TBST; 10 mM Tris-HCl, 150 mM NaCl, 0.1% Tween 20). Immunoblotting was performed with primary anti G9a (#3306, Cell Signaling), H3K9me2 (ab 1220, Abcam), H3 (ab1791, Abcam) or Tubulin (ab6046, Abcam) and detected with either HRP-conjugated anti-rabbit (#7074, Cell Signaling Technology) or HRP-conjugated anti-mouse (#7076, Cell Signaling Technology). After applying ECL detection reagents (GE Healthcare), protein bands were visualized using X-ray film (Fujifilm).
# Immunoblotting analysis was performed as described above, but also utilizing an anti-LC3B primary antibody (ab48394, Abcam).
# [3] = system: PARP; test: PARP cleavage as a measure of apoptosis; format: cell-based, human; details: any cell line treated, data not shown
# Excerpt: Having established that G9a inhibition is effective in inducing death of melanoma cells in vitro, the molecular basis for this effect was then investigated. First, cells treated with UNC0642 were examined for its effect on the cleavage of PARP as a measure of apoptosis.
# [4] = system: D05 and C008 melanoma cell lines; test: Proliferation by IncuCyte Zoom real time cell imaging, sensitive lines; format: cell-based, human
# Experimental: Four cell lines were then chosen for further analysis. These were C006 (NRAS mt), C092 (Triple wt), C008 (NF1 mt) and D05 (BRAF mt). These four lines are representatives of the 4 cutaneous melanoma genomic subtypes and include 2 lines (C008 and D05) that were very sensitive to the inhibitor and 2 lines that were less sensitive (C006 and C092). Proliferation of these lines was evaluated by real time cell imaging using IncuCyte Zoom where cells were grown for 48 hours in the presence or absence of 5 μM UNC0642.
# For proliferation studies, cells (5×10^3) were seeded in 96-place wells and allowed to adhere overnight, and incubated in fresh growth medium in the presence of either the G9a inhibitor UNC0642 (Sigma Aldrich) or the vehicle control DMSO (Sigma Aldrich). Proliferation was evaluated via real-time imaging using IncuCyte Zoom (Essen BioScience) and/or by performing a 3-(4,5-dimethylthiazol-2-yl)-2,5-diphenyltetrazolium bromide ([…]) assay. After monitoring the cells, 20 μL of MTT (5 mg/mL; Sigma-Aldrich) was added. The plates were incubated at 37° C. for 3 h before the supernatants were removed, and 100 μL of isopropanol was added to each well. The absorbance value (optical density) of each well was measured at 570 nm.
# [5] = system: MAP1LC3B; test: Quantitative real time PCR of MAP1LC3B expression in melanoma cell lines; format: cell-based, human; details: 24 hours
# Experimental: as §1
# [6] = system: H3K9me2; test: Immunoblotting analysis of global H3K9me2; format: cell-based, human; details: D05 and C008 cell lines, as early as 8 hours and persisted to 24 hours, FIG. 3B
# Experimental: as §2
# [7] = system: MAP1LC3B promoter; test: Chromatin immunoprecipitation (ChIP) on the MAP1LC3B promoter; format: cell-based, human; details: D05 cells, 5 μM, 24 h, FIG. 9
# Experimental: In order to ascertain whether the inhibition of G9a directly impacts MAP1LC3B expression, chromatin immunoprecipitation (ChIP) was performed on the MAP1LC3B promoter. Changes in histone H3K9 dimethylation (H3K9me2) and acetylation (H3K9Ac), as well as the recruitment of RNA Pol II, were compared between vehicle or UNC0642 treated cells (FIG. 9). Consistent with the increase in gene expression observed in FIG. 8, there was a greater than 4-fold reduction in H3K9me2 concomitant with an increase in RNA Pol II recruitment at the MAP1LC3B promoter following UNC0642 treatment.
# as §1
smiles,measurement,setting,value
COc1cc2c(NC3CCN(C(C)C)CC3)nc(N3CCC(F)(F)CC3)nc2cc1OCCCN1CCCC1 [UNC0642],expression of the MAP1LC3B gene in tumors (quantitative real time PCR),"[1]; compared to the vehicle treated group, P<0.01, FIG. 10C",statistically significant increase
same,level of MAP1LC3B in the excised tumors (immunohistochemical analysis),"[1]; compared to vehicle, FIG. 10D",significantly increased
same,LC3B II protein levels,[2],dramatically increased
same,PARP cleavage,[3],No observable PARP cleavage
same,proliferation,"[4]; D05 and C008, 5 μM, 48 hours, compared to vehicle control, data not shown",significant reduction in proliferation
same,number of cells,"[4]; over 48 hours treatment, 5 μM, FIG. 3A",significantly decreased
same,induction of MAP1LC3B expression,"[5]; less sensitive cells (C006 and C092), no statistically significant difference to vehicle, FIG. 8",minimal
same,"MAP1LC3B expression, induction compared to vehicle control","[5]; very sensitive lines (D05 and C008), P<0.05, FIG. 8",~2 fold
same,global H3K9me2,[6],reduction
same,RNA Pol II recruitment at the MAP1LC3B promoter,[7],increase
same,reduction in H3K9me2 at the MAP1LC3B promoter,[7],greater than 4 fold
